Results: patent US20060063711A1, “Use of sglt homolog” (priority 2002, published 2006)

Target: T1, human SGLT2 (hSGLT2) (Homo sapiens, UniProt P31639)
T1 construct: expressed in transfected cells; host or cells: CHO cells
T1 sequence (P31639 1-672): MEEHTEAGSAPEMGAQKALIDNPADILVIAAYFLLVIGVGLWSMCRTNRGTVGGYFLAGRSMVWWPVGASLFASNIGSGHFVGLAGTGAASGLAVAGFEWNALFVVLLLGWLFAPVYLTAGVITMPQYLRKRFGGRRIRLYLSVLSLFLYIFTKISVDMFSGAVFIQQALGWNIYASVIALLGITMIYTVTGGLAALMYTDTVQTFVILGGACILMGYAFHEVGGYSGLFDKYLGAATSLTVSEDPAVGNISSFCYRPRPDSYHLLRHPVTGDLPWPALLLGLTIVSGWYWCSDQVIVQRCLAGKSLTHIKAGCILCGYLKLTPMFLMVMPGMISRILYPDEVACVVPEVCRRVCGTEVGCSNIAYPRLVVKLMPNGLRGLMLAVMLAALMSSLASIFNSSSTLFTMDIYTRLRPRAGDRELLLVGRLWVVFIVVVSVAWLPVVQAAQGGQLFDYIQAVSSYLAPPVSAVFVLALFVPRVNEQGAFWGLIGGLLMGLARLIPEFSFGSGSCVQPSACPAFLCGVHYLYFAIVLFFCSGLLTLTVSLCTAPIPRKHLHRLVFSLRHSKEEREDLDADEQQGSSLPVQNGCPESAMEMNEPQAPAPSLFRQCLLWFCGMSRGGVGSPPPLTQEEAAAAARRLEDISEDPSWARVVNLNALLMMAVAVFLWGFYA
Assay: α-methyl glucose uptake in CHO cells expressing hSGLT2
Format: cell-based
Settings: control = NMDG without NaCl
Method: The cells were plated on 100 μl of DMEM containing 10% FBS charged in a 96-well plate in a cell density of 1×10^5 cells/well, followed by culturing overnight at 37° C. […] The buffer solution was removed and replaced with 90 μl of the same buffer solution or the buffer solution containing NaCl or NaCl+Phlorizin (Sigma) in place of N-Methyl-D-Glucamine (NMDG). After one-hour incubation with 10 μl of 1 mM α-methyl glucose (containing 0.02 μCi of [^14C]-α-Methyl Glucose (Amersham Pharmacia Biotech)) per well, the cells were washed 3 times with 200 μl of chilled PBS buffer. The radioactivity of ^14C taken up into the cells was counted with 100 μl of a liquid scintillator added per well.

## O=C(CCc1ccc(O)cc1)c1c(O)cc(O)cc1O[C@@H]1O[C@H](CO)[C@@H](O)[C@H](O)[C@H]1O [phlorizin]
NaCl + 3 μM phlorizin
  Uptake of α-Methyl Glucose (% based on Control Group): 139 ± 23%
NaCl + 100 μM phlorizin
  Uptake of α-Methyl Glucose (% based on Control Group): 48 ± 8%
